{"source": "patent US20220088278A1", "about": "“Covered Stent For Local Drug Delivery” (BIOTRONIK AG, priority 2019, published 2022)", "origin": "cited, not measured here", "tested_on": "main bile duct of pancreatic cancer patients", "conditions": "thirty-six pancreatic cancer patients"}
{"smiles": "CC(=O)O[C@H]1C(=O)[C@@]2(C)[C@H]([C@H](OC(=O)c3ccccc3)[C@]3(O)C[C@H](OC(=O)[C@H](O)[C@@H](NC(=O)c4ccccc4)c4ccccc4)C(C)=C1C3(C)C)[C@]1(OC(C)=O)CO[C@@H]1C[C@@H]2O", "note": "[paclitaxel]", "values": [{"measurement": "duct patency duration versus covered stent without drug", "value": "did not significantly differ"}]}
